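A five-concentration, 48-hour dose response in 96-well plates underlies each endpoint, interpolated linearly between surrounding concentrations. GI50 marks 50% less growth. At the TGI there is no net growth.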
Tests used:
Assay in all cases: NCI-60 cell line screen, 48 h
ACHN renal = tested on: ACHN renal
CCRF-CEM leukemia = tested on: CCRF-CEM leukemia
HOP-92 NSCLC = tested on: HOP-92 NSCLC
NCI-H23 lung = tested on: NCI-H23 lung
PC-3 prostate = tested on: PC-3 prostate
SN12C renal = tested on: SN12C renal
UO-31 renal = tested on: UO-31 renal
NCI-H226 lung = tested on: NCI-H226 lung
MALME-3M melanoma = tested on: MALME-3M melanoma
MCF7 breast = tested on: MCF7 breast

Compound	TGI (ACHN renal) [µM]	TGI (CCRF-CEM leukemia) [µM]	TGI (HOP-92 NSCLC) [µM]	TGI (NCI-H23 lung) [µM]	TGI (PC-3 prostate) [µM]	TGI (SN12C renal) [µM]	TGI (UO-31 renal) [µM]	TGI (NCI-H226 lung) [µM]	TGI (MALME-3M melanoma) [µM]	TGI (MCF7 breast) [µM]	GI50 (ACHN renal) [µM]	GI50 (CCRF-CEM leukemia) [µM]	GI50 (HOP-92 NSCLC) [µM]	GI50 (MALME-3M melanoma) [µM]	GI50 (NCI-H23 lung) [µM]	GI50 (PC-3 prostate) [µM]	GI50 (SN12C renal) [µM]	GI50 (UO-31 renal) [µM]	GI50 (MCF7 breast) [µM]
NC(CCP(=O)(O)CCC1C=CC=CC1)C(=O)O (centres undefined)	> 100	> 100	> 100	> 100	> 100	> 100	> 100												
CC(C)(C)[Si](C)(C)OCC1CCC(n2cnc3c(N)ncnc32)O1 (centres undefined)		> 100	> 100	> 100	> 100	> 100	> 100	> 100											
COC(=O)c1ccc(N=NN(C)COc2ccc([N+](=O)[O-])cc2)cc1		> 100	> 100	> 100		> 100	> 100	> 100	> 100	> 100									
O=[N+]([O-])c1ccc(Nc2nc3ccccc3s2)cc1	> 100		60.9	34.5	35.1		66.5	> 100	46.1										
COc1cc(C2=C(C#N)C(N)OC3=C2COc2ccccc23)cc(OC)c1OC (centres undefined)	32.2	> 100	> 100	> 100	50.6	39.1	12.7	91.1	32.3	> 100									
CC1=CC(=O)C(=O)C2=C1OC1(C2)C(C)CCC2C3(C)CCC(O)C(C)(C)C3CCC21C (centres undefined)	31.9	65.2	33.1	31.3		> 100	34.4	35.5	35.3										
COC1CC(OC2CCC3(C)C(CCC45CCC(C6=CC(=O)OC6)C(C)(CCC43)C5=O)C2)OC(C)C1O (centres undefined)	41.1	50.6	> 100	48.3	> 100	61.9	35.8	> 100		> 100									
NNc1nc2ccccc2s1	> 100	> 100	> 100	> 100	> 100	> 100	> 100	> 100	> 100	> 100									
Nc1ccc2c3c(n(CCCCl)c(=O)c2c1)-c1cc2c(cc1C3=O)OCO2	> 100	> 100	> 100	25.8	> 100	> 100	> 100		> 100		> 100	> 100	> 100	7.79	0.562	> 100	> 100	48.1	
CCC(=O)NC(Nc1ccc(O)cc1)(C(F)(F)F)C(F)(F)F	> 100	> 100		> 100		> 100	> 100	> 100	> 100	> 100									
CC12CCC(C(=O)N3CC=CCC3)(OC1=O)C2(C)C (centres undefined)		> 100	> 100	> 100		> 100	> 100	> 100	> 100	> 100									
c1cn2cc(-c3ccc4ncn(C5CCCCC5)c4c3)nc(-c3ccc4c(c3)ncn4C3CCCCC3)c2n1	3.07	6.08	3.22			4.53	2.85		3.75	4.58	1.68	1.69	1.54	2.11			2.05	1.49	1.8
O=C(O)C1Cc2c([nH]c3ccccc23)C=N1 (centres undefined)		> 100	> 100	> 100		> 100	> 100		> 100	> 100									

Reference: PubChem BioAssay (NCI)
